One experiment deals with type I procollagen. The experiment is described as follows: Indirect immunofluorescence detection of type I procollagen in the dermis of reconstructed skin. Type of experiment: cell-based, human. The method, then:
Conventional detection via indirect immunofluorescence of type I procollagen in the dermis of the reconstructed skin was also performed on other series of frozen sections (anti-procoll 1 antibody (MAB 1912 Millipore)+FTIC-coupled conjugate (112-095-068 Jackson Immunoresearch)). In order to obtain bearings within the cutaneous architecture during the microscopic examination of the sections, the cell nuclei of the keratinocytes and fibroblasts are localized by staining them with propidium iodide, as described above. Three frozen sections are prepared at random on each reconstructed skin and on each section, and two microscopic fields (25× objective lens) are analysed by fluorescence microscopy and photographed. The levels of fluorescence proportional to the amount of type I procollagen are compared between the control skin and the skin treated with rhamnose.

In experiment [1] the test system is dermal fibroblasts of the reconstructed skin. Nature of the experiment: Count of dermal fibroblasts in whole reconstructed skin (propidium iodide staining of frozen sections). Format: cell-based, human. Particulars: 5 mM; within 48 hours of treatment. The source says:
Rhamnose was studied on a model of whole reconstructed skin in order to measure its anti-aging efficacy on the dermal compartment.
Briefly, the model of reconstructed skin used is that described by Bell et al. (Bell E. et al., The reconstitution of living skin, J. Invest. Dermatol., 1983, July; 81): it includes a dermal equivalent on which is reconstructed a multistratified epidermis; the dermal equivalent is manufactured from acid-soluble collagen, culture medium containing serum and normal adult human fibroblasts. After 5 days of shrinkage, this equivalent is inoculated with keratinocytes and then cultured for 6 days in immersion and for 7 days in emersion in order to obtain a multistratified and differentiated epidermis having a horny layer.
The reconstructed skin is treated with 5 mM rhamnose for 2 days and 5 days in the culture medium; after the treatment, the reconstructed skins are included in Tissue Tek in order to produce frozen sections 7 μm thick with a cryostat. […] Three frozen sections are prepared at random on each reconstructed skin; on each section, two microscopic fields (25× objective lens) are analysed by fluorescence microscopy and photographed. The dermal fibroblasts are thus counted for each reconstructed skin on six images in total representing the six microscopic fields considered. […]

In experiment [2] the test system is keratinocytes (HaCat line). Nature of the experiment: Keratinocyte proliferation in culture medium deficient in growth factors (Cyquant, Nile red, XTT probes). Format: cell-based. The method, then:
The keratinocytes (HaCat line) are cultured under two conditions: whole defined culture medium (standard condition) and culture medium deficient in growth factors. This deficient medium gives rise to a controlled delay in cell proliferation. Under these conditions, it is then possible to measure the effects of compounds capable of compensating for the deficiency in growth factors of the culture medium and thus of relaunching the cell multiplication and/or of stimulating cell metabolism.
The keratinocyte proliferation is measured by means of three markers on the same cell population: the level of DNA, which is proportional to the number of cells (Cyquant probe), the level of constituent polar lipids of cell membranes (Nile red probe) and the mitochondrial respiration, which reflects the general cell metabolism (XTT probe).
(Tetrazolium dyes change colour on reduction, which living cells bring about.)

Setting [3] is: 1 mM, HaCat keratinocytes in medium depleted in growth factors, vs untreated control.

Regarding `C[C@H](O)[C@H](O)[C@@H](O)[C@@H](O)C=O` [rhamnose, L-rhamnose], in the experiment with type I procollagen (1 mM for 120 hours, reconstructed skin), the “synthesis of type I procollagen by the fibroblasts” value is on record as “greatly stimulated”. Further, the “green fluorescence (proportional to amount of type I procollagen) compared with control skin” value in the experiment on type I procollagen (1 mM for 120 hours, reconstructed skin section) is “marked increase”. In addition, the “procollagen 1 synthesis” value with type I procollagen (1 mM, reconstructed skin) is “stimulation”. In addition, in the experiment on type I procollagen (5 mM, reconstructed skin), the “procollagen 1 synthesis” value is “stimulation”. In addition, in experiment [1], the “growth of the dermal fibroblasts of the reconstructed skin” value was “stimulation of growth”. In experiment [2] (500 μM, medium depleted in growth factors), the “efficacy on keratinocyte proliferation” value is “already show efficacy”. In experiment [2] (setting [3]), the “level of DNA (Cyquant)” value is “significantly increased”, the “level of polar lipids (Nile red signal)” value is given as “significantly increased” and the “mitochondrial respiration (XTT signal)” value was “significantly increased”. Moreover, the “number of cells compared with an untreated control (keratinocyte proliferation)” value in experiment [2] (keratinocytes cultured in medium depleted in growth factor) is listed as “higher number of cells”.

These data come from patent US20100168055A1, “COMBINATION OF MONOSACCHARIDE WITH C-GLYCOSIDE DERIVATIVE AND USE THEREOF” (L'OREAL, priority 2008, published 2010).
